The source of these data is patent publication US20250049751A1, “L-THEANINE AND TETRAHYDROCANNABINOL FORMULATION” (priority 2018, published 2025).

Experiment [1] relates to rats. The experiment in a line: Novel object memory test (Novel Object Recognition). The class given is in vivo, rat. The following applies: 60 min delay, chronic THC 10 days twice daily i.p., L-Theanine 10 mg/kg, FIG. 3. As for the experimental part:
(§1) Four groups of ten rats were studied. The first group of rats was given twice daily intra-peritoneal doses of THC. The dosage regime was as follows
(§2) Immediately preceding each dose of THC, each rat was dosed with 10 mg/kg L-Theanine, administered intra-peritoneally.
(§3) The second group of rats was given the same doses of THC and no L-Theanine.
(§4) The third group of rats was given twice daily doses of L-Theanine but no THC.
(§5) The fourth group of rats was given neither THC nor L-Theanine.
(§6) All groups of rats were fed, watered and otherwise housed identically. At the end of the 10 day period, the rats were subject to a serious of tests.
The test sessions consisted of two 3-min trials. During the first trial (T1 acquisition trial), each rat was placed in the center of an arena containing two identical objects placed in the far corners 15 cm from the side wall. […] Times spent in exploration were videotaped with a video-tracking system (ANY-maze; Stoelting) and analyzed by an experimenter blind to the treatment conditions. Exploration times were recorded and used to calculate object recognition index [time spent with novel object/total time exploring both objects]

The subject of experiment [2] is rats. The experiment in a line: Paired-pulse (prepulse) inhibition test for cognitive filtering deficits. The class given is in vivo, rat. The conditions noted are these: L-Theanine 10 mg/kg; for prepulse inhibition / sensory filtering: both 30 and 100 msec between pre-pulse and test pulse, 10 days twice daily i.p. THC 2.5-10 mg/kg, relative to vehicle control rats, FIG. 1. As for the experimental part: as §1, §2, §3, §4, §5, §6
Rats were acclimatized to the startle chambers (Med Associates) for 5 min over 3 days. On the last day of acclimation, rats were tested in an input/output (I/O) function consisting of 12 increasing startle pulses (from 65 to 120 dB, 5 dB increments) to determine the appropriate gain setting for each individual rat. The testing procedure consisted of the following phases: the acclimation phase, a habituation phase (Block 1), and PPI measurement (Block 2). During acclimation, rats were exposed to the chambers and white background noise (68 dB) for 5 min. During Block 1, 10 pulse alone trials (110 dB white noise, 20 ms duration) were delivered at 15-20 s inter-trial intervals. Block 2 consisted of […] presented 10 times in a pseudo-randomized order at 15-20 s intervals: 10 pulse-alone trials, and 10 of each of the three different prepulse-pulse trial types (72, 76, 80) with interstimulus intervals of 30 and 100 ms. Pulse-alone trials consisted of a startle stimulus-only presentation, whereas prepulse-pulse trials consisted of the presentation of a weaker non-startling prepulse (white noise, 20 ms duration) before the startling stimulus. PPI was calculated for each animal and each trial condition as PPI (%)=(1-average startle amplitude to pulse with prepulse/average startle amplitude to pulse only)×100.

The subject of experiment [3] is rats. The experiment in a line: Sucrose preference testing for depression/anhedonia symptoms. The conditions noted are these: 2% sucrose vs. plain water, chronic THC 10 days twice daily i.p., L-Theanine 10 mg/kg, FIG. 2. The class given is in vivo, rat. As for the experimental part: as §1, §2, §3, §4, §5, §6
Rats were water-restricted for 12 hrs prior to being given a 2-bottle choice test between a solution containing 2% sucrose vs. plain water. The amounts consumed from each bottle were measured over 24 hr for 4 days. A sucrose preference index was calculated for each rat and averaged across groups by taking the percentage of the volume of sucrose intake over the total volume of fluid intake over […].

In experiment [4] the test system is glycogen-synthase-kinase-3A. The experiment can be described thus: Western Blot of GSK-3α protein expression. Format: in vivo, rat. The following applies: rats, chronic THC exposure, L-Theanine 10 mg/kg. As to the method: (§7) FIG. 7. […] These molecular signaling effects are prevented by co-administration with L-Theanine (10 mg/kg), as measured in a Western Blot procedure.
as §1, §2, §3, §4, §5, §6
For orientation: A western blot detects proteins with antibodies after separation by electrophoresis.

The next experiment relates to Akt at serine 473. The experiment in a line: Protein expression of Akt at serine 473 in prefrontal cortex. Format: in vivo. The conditions noted are these: prefrontal cortex of rat brain; chronic THC, L-Theanine 10 mg/kg; FIG. 8.
For experiment [5], the system named is glycogen-synthase-kinase-3B. The experiment can be described thus: Western Blot of GSK-3β protein expression. The class given is in vivo, rat. The conditions noted are these: rats, chronic THC exposure, L-Theanine 10 mg/kg. As for the experimental part:
as §7, §1, §2, §3, §4, §5, §6

For experiment [6], the system named is single neurons of the prefrontal cortex (PFC). The experiment can be described thus: In vivo single-unit electrophysiology recordings in the PFC (burst testing). Also noted: species or system rat. The following applies: rats; chronic THC exposure, L-Theanine 10 mg/kg; FIG. 5. As for the experimental part:
as §1, §2, §3, §4, §5, §6
(§8) Extracellular single-unit electrophysiological recordings were performed in vivo in adult (>PND 75) pretreated rats during adolescence. The recordings were taken from either putative glutamatergic (GLUT) PFC neurons or dopaminergic (DA) VTA neurons. […] Extracellular signals were amplified (×5000) using a MultiClamp 700B amplifier (Molecular Devices), digitized at 25 kHz and recorded on the computer using a Digidata 1440 A and pClamp software (Molecular Devices). […]
Putative mPFC pyramidal cells were identified based on established criteria85: (1) firing frequency <10 Hz, (2) waveform shape, and (3) action potential duration >2.5 ms. […] After an individual putative pyramidal neuron was isolated, its spontaneous activity was recorded for 5 min. […]

Experiment [7] relates to Akt (protein kinase B) threanine308. The experiment can be described thus: Protein expression of Akt308 in prefrontal cortex. The class given is in vivo. The conditions noted are these: prefrontal cortex of rat brain; chronic THC, L-Theanine 10 mg/kg; FIG. 8. As to the method: FIG. 8. […] This effect is prevented by L-Theanine (10 mg/kg) co-administration.
as §1, §2, §3, §4, §5, §6

Experiment [8] relates to single dopamine neurons in the ventral tegmental area. The experiment can be described thus: In vivo single-unit electrophysiology recordings in the VTA. Also noted: species or system rat. The conditions noted are these: rats; chronic THC exposure, L-Theanine 10 mg/kg; FIG. 4. As to the method:
as §1, §2, §3, §4, §5, §6
as §8, with “neurons. Rats were anesthetized with urethane (1.4 g/kg, i.p., Sigma-Aldrich) and placed in a stereotaxic frame with body temperature maintained at 37° C.” for “neurons.”

Experiment [9] relates to gamma-band activity in the rat prefrontal cortex. The experiment in a line: Local field potential recordings in prefrontal cortex (normalized power testing). The following applies: chronic THC exposure, L-Theanine 10 mg/kg, 0-100 Hz range. Format: in vivo. As to the method: as §1, §2, §3, §4, §5, §6
as §8, with “neurons. Rats were anesthetized with urethane (1.4 g/kg, i.p., Sigma-Aldrich) and placed in a stereotaxic frame with body temperature maintained at 37° C.” for “neurons.”

“Also recorded” adds a separate entry of the source.

For the compound `CCNC(=O)CC[C@H](N)C(=O)O` [L-Theanine], the “object recognition (object memory)” value in the experiment with rats [1] is reported as “no apparent effects on object recognition”. For the same compound, the “prepulse inhibition / sensory filtering” value with rats [2] is reported as “no apparent effects on sensory filtering”. Besides, the “sucrose preference (anhedonic, depression-like effects)” value in the experiment with rats [3] is reported as “no apparent effects on sucrose preference”.

As to `CCCCCc1cc(O)c2c(c1)OC(C)(C)[C@@H]1CCC(C)=C[C@@H]21` [THC, Δ-9-tetrahydrocannabinol], in the experiment with rats [1], the “object recognition (object memory)” value is reported as “significant object memory impairment; also recorded: strong reductions in object recognition”. Also, the “sensorimotor filtering (paired-pulse-inhibition)” value with rats [2] (30 msec stimulus intervals, 72 and 84 decibel stimulus intensities, FIG. 1A) was “disruption of sensorimotor filtering”; in the experiment on rats [2] (100 msec stimulus intervals, 72, 76 and 80 decibel stimulus intensities, FIG. 1B) it was “disruption of sensorimotor filtering”. In the experiment with rats [2], the “prepulse inhibition / sensory filtering” value is given as “strong deficits in the prepulse inhibition”. In addition, the “protein expression levels of GSK-3α” value in experiment [4] (FIG. 7) is reported as “significant loss in the protein expression levels”; in experiment [4] (FIG. 7, listed as THC-alone), “significant decrease”. Moreover, the “effect on Akt at serine 473” value in the experiment on Akt at serine 473 is given as “no effect”. Moreover, the “protein expression levels of GSK-3β” value was “significant loss in the protein expression levels” in experiment [5] (FIG. 7) and “significant decrease” in experiment [5] (FIG. 7, listed as THC-alone). The “bursting pattern activity of single neurons of the prefrontal cortex” value in [6] was “hyperactive ‘bursting’ pattern activity state; also recorded: neuronal hyperactivity”. Moreover, the “protein expression levels of Akt308” value in experiment [7] was “significant downregulation in protein expression levels of Akt308”. In addition, in experiment [8], the “activity rates of single dopamine neurons in the ventral tegmental area” value was “hyperactive activity rates”. Moreover, in the experiment on rats [3], the “sucrose preference (anhedonic, depression-like effects)” value is “anhedonic (depression-like) effects; also recorded: strong sucrose preference reduction”. The “gamma-band activity (local field potentials, normalized power)” value is given as “significant decrease in gamma-band activity states” in [9] (FIG. 6) and “generally decreased activity” in [9] (FIG. 6, listed as THC only).
